Measured values published in patent publication US4568666A, “Carboxylalkyl peptide derivatives” (G. D. Searle & Co., priority 1984, dated 1986).

Key:
[1] = molecular target: T1, Human Rheumatoid Synovial Collagenase (Homo sapiens, UniProt P03956); assay: Collagenase inhibition (procedure of Cawston and Barrett, acetyl 14C collagen); format: biochemical; details: 37° C., 16 hours, native acetyl 14C collagen, Tris HCl-CaCl2 pH 7.6
T1 construct: from tissue
T1 sequence (P03956 100-469): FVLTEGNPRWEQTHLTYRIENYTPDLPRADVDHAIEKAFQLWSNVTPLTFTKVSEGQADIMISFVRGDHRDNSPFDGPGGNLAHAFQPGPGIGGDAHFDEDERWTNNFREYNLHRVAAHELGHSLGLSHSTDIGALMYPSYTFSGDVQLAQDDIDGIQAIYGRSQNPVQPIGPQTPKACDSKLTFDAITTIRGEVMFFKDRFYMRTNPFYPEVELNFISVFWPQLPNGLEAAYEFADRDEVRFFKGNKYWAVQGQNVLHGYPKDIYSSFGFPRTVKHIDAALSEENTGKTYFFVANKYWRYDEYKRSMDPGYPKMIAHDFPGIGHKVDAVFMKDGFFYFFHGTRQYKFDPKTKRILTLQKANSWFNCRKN
Experimental: This was determined following the procedure of Cawston and Barrett, Anal. Biochem., 99, 340-345 (1979) whereby the 1 mM of the inhibitor being tested or dilutions thereof are incubated at 37° C. for 16 hours with native collagen and collagenase (buffered with Tris HCl--CaCl2; pH 7.6). The collagen is acetyl ^14 C collagen. The samples are centrifuged to sediment undigested collagen and an aliquot of the radiactive supernatant removed for assay on a scintillation counter as a measure of hydrolysis. The collagenase activity in the presence of 1 mM inhibitor, or a dilution thereof, is compared to activity in a control devoid of inhibitor and the results reported as that inhibitor concentration effecting 50% inhibition of the collagenase.

[2] = test system: rat model of inflammatory arthritis; assay: Rat model of inflammatory arthritis induced by Type II collagen (Trentham et al.); format: in vivo; details: prednisolone 0.625 mg/kg b.i.d.
Experimental: The therapeutic effectivness is assessed in the rat model of inflammatory arthritis described by Trentham et al. (1977). In this model, the arthritis, induced by an intradermal injection of Type II collagen, generally develops in both hind paws and the progression and severity of the lesion are monitored by physical measurements of the malleolar width and ankle extensibility.
The compound of Example II in the present specification was administered by intraperitoneal injections at 100 mg/kg twice daily for 21 days commencing seven days after the injection of the disease.
Drugs (Example 11 or prednisolone) and vehicle were administered to groups of 10 rats each. Physical measurements on the rat paws were made weekly for four weeks and consisted of (a) the distance between the medial and lateral malleolus (malleolar width) and (b) the ankle extension which was measured by applying a standard force to th rat paw and measuring the angle formed between the flexor surface of the foot and the tibia. Evidence of a therapeutic effect was denoted by a significant reduction in malleolar width and a significant increase in ankle extension. Both measurements were carried out in apparatus designed for the purpose. Area-under-the-curve data from these time course experiments was examinaed by non-parametic statistical analysis. The prednisolone standard was given at a dose of 0.625 mg/kg b.i.d. Prednisolone was chosen as a standard since steroids are known to be effective both clinically in Rheumatoid Arthritis and in animal models of arthritis.

[3] = arthritic rats' paws, Example 11 100 mg/kg i.p. twice daily for 21 days, area-under-the-curve data
[4] = mean of experiments 1-3, Example 11 100 mg/kg i.p. twice daily

Compound | IC50 [1] [µM] | Ankle extension, percentage change from control, experiment number 1 [2, 3] [%] | Ankle extension, percentage change from control, experiment number 2 [2, 3] [%] | Ankle extension, percentage change from control, experiment number 3 [2, 3] [%] | Malleolar width, percentage change from control, experiment number 1 [2, 3] [%] | Malleolar width, percentage change from control, experiment number 2 [2, 3] [%] | Malleolar width, percentage change from control, experiment number 3 [2, 3] [%] | Ankle extension, percentage change from control, mean [2, 4] [%] | Malleolar width, percentage change from control, mean [2, 4] [%]
CNC(=O)[C@H](Cc1ccc(OC)cc1)NC(=O)[C@H](CC(C)C)N[C@H](CCNC(=O)OCc1ccccc1)C(=O)O [Example 11, N-[3-N-(Benzyloxycarbonyl)amino-1-(R)-carboxypropyl]-L-leucyl-O-methyl-L-tyrosine N-Methylamide] | 0.8 | 66 | 39 | 39 | 65 | 43 | 41 | 48 | –
C[C@]12C=CC(=O)C=C1CC[C@@H]1[C@@H]2[C@@H](O)C[C@@]2(C)[C@H]1CC[C@]2(O)C(=O)CO [Prednisolone, prednisolone, reference compound] | – | – | 96 | 95 | 98 | 96 | 97 | 97 | 97
